Laboratory results taken from patent US9393228B2, “Combination of a slow sodium current blocker and a sinus If current inhibitor, and the pharmaceutical compositions containing said combination” (PIERRE FABRE MEDICAMENT, priority 2013, dated 2016).
Where a name gives a salt, the structure may show the parent alone.

System: anesthetized rabbits
Assay: ST segment elevation by occlusion of the circumflex coronary artery in anesthetized rabbits (anti-ischemic activity, with blood pressure and heart rate)
Assay type: in vivo, rabbit
Settings: for Heart rate / Mean blood pressure: 5 minutes after i.v. administration; for Heart rate / Mean blood pressure / effect on heart rate (in words): compound B 0.63 mg/kg; for effect on ST segment elevation (in words): i.v. slow bolus, compound A 0.04 mg/kg or compound B 0.63 mg/kg, 5 min before 5 min circumflex occlusion
Method: The anti-ischemic activity of 3-(R)-[3-(2-methoxyphenylthio)-2-(S)-methyl-propyl]amino-3,4-dihydro-2H-1,5-benzoxathiepine combined with ivabradine was evaluated in a model of ST segment elevation by occlusion of the circumflex coronary artery in anesthetized rabbits.
Male rabbits (2.2-2.5 kg) are anesthetized with pentobarbital. A catheter is placed in a carotid artery in order to continuously measure the animal's blood pressure. Blood samples are taken in order to regularly check blood gases and to modify ventilation parameters as needed. The compounds to be tested or the carriers are administered via a catheter placed in an ear vein. An electrocardiogram is recorded, also continuously, in configuration II in order to determine the variations of amplitude of the ST segment. The animal's thorax is opened and a ligature is placed around the left coronary artery (circumflex) in order to induce regional myocardial ischemia (Verscheure et al., 1995). After a period of stabilization of all hemodynamic parameters, the compounds are administered in a slow bolus (1 minute). Five minutes after the compounds are administered, the circumflex artery is occluded for 5 minutes and then the ligature is released. The heart is removed and the risk area (ligatured region of the circumflex artery) is evaluated. Four groups of rabbits are studied: • group receiving carrier: 40% polyethylene 300, 60% physiological saline; • group receiving 3-(R)-[3-(2-methoxyphenylthio)-2-(S)-methyl-propyl]amino-3,4-dihydro-2H-1,5-benzoxathiepine (compound A) at a dose of 0.04 mg/kg; • group receiving ivabradine hydrochloride (compound B) at a dose of 0.63 mg/kg; • group receiving compound A (0.04 mg/kg)+compound B (0.63 mg/kg).
The doses were selected in order to have submaximal pharmacological activities and thus to uncover potential additive or synergistic effects.

SMILES | Heart rate (compound A 0.04 mg/kg) [bpm] | Mean blood pressure (compound A 0.04 mg/kg) [mmHg] | effect on ST segment elevation (in words) | effect on blood pressure (in words) (i.v., compound A 0.04 mg/kg) | effect on heart rate (in words) (i.v., compound A 0.04 mg/kg)
COc1ccccc1SC[C@@H](C)CN[C@@H]1COc2ccccc2SC1 [Compound A, 3-(R)-[3-(2-methoxyphenylthio)-2-(S)-methyl-propyl]amino-3,4-dihydro-2H-1,5-benzoxathiepine] | 275 ± 10 | 92 ± 4 | slight inhibition | without changing | without changing
COc1cc2c(cc1OC)CC(=O)N(CCCN(C)C[C@H]1Cc3cc(OC)c(OC)cc31)CC2 [Compound B, ivabradine hydrochloride, reference compound] | 211 ± 10 | 92 ± 3 | lower ST segment elevation |  | relatively significant and constant bradycardia
